Activity calls are given as the source filed them.
Key:
[1] = in vitro; conditions: mouse, microsomes
Description: Metabolic stability in mouse microsome assessed as intrinsic clearance

[2] = Drug metabolism in mouse microsome assessed as formation of monohydroxylated metabolite; assay type: ADME; conditions: microsomes
[3] = Protection index, ratio of TD50 for toxicity in ip dosed mouse to ED50 for anticonvulsant activity in ip dosed mouse; assay type: organism-based; conditions: in vivo, read-out: PI
[4] = system: Mus musculus; assay: Antiallodynic activity in mouse model of OXA-induced peripheral neuropathy assessed as mean latency time to nocifensive response at 15 mg/kg, ip administered after 7 days of OXA stimulation and measured after 1 hr by cold plate method (reference value: 57.64 +/- 1.267 sec); assay type: functional
[5] = Toxicity in mouse assessed as lethality at 50 mg/kg, ip; assay type: organism-based; conditions: in vivo
[6] = system: Mus musculus; assay: Antiallodynic activity in mouse model of OXA-induced peripheral neuropathy assessed as mean paw withdrawal threshold at 15 mg/kg, ip administered after 3 hrs of OXA stimulation and measured after 1 hr by Von-frey method (reference value: 3.144 +/- 0.169 g); assay type: functional
[7] = Antioxidant activity assessed as DPPH radical scavenging activity at 125 to 1000 uM by microplate method; assay type: functional; conditions: dose microM 125-1000
[8] = system: Mus musculus; assay: Antiallodynic activity in mouse model of OXA-induced peripheral neuropathy assessed as mean latency time to nocifensive response at 15 mg/kg, ip administered after 3 hrs of OXA stimulation and measured after 1 hr by cold plate method (reference value: 59.76 +/- 0.16 sec); assay type: functional
[9] = system: Mus musculus; assay: Antiallodynic activity in mouse model of OXA-induced peripheral neuropathy assessed as mean paw withdrawal threshold at 15 mg/kg, ip administered after 7 days of OXA stimulation and measured after 1 hr by Von-frey method (reference value: 3.192 +/- 0.181 g); assay type: functional
[10] = in vitro; conditions: mouse, microsomes; remark: listed apart in the source
Description: Metabolic stability in mouse microsome assessed as half life

[11] = biological target: T1, 5-hydroxytryptamine receptor 1A (Homo sapiens, UniProt P08908); assay: Binding affinity to 5-HT1A (unknown origin)
T1 sequence (P08908 whole entry): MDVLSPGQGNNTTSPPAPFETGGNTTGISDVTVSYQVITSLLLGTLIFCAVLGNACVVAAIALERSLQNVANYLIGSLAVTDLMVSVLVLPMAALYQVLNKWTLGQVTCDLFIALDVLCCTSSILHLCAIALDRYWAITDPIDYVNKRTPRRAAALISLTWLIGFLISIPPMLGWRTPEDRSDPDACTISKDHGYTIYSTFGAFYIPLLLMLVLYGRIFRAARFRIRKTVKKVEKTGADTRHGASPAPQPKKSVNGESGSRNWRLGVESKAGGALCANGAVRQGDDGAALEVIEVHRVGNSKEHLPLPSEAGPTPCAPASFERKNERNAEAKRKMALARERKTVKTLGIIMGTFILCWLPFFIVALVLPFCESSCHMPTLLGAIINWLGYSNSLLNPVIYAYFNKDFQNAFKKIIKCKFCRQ

[12] = Toxicity in ip dosed mouse assessed as motor impairment by rotarod test; assay type: organism-based; conditions: in vivo
[13] = system: Mus musculus; assay: Anticonvulsant activity in ip dosed mouse assessed as protection against current-induced seizure by maximal electroshock seizure test; assay type: functional
[14] = system: Mus musculus; assay: Anticonvulsant activity in ip dosed albino mouse assessed as protection against 50 mA current-induced seizure by maximal electroshock seizure test; assay type: functional
[15] = Genotoxicity in Salmonella typhimurium TA98 assessed as number of revertant at 10 ug by AMES test (reference value: 8 to 8.3); assay type: toxicity, Salmonella enterica subsp. enterica serovar Typhimurium; conditions: in vivo; dose 10 µg
[16] = Genotoxicity in Salmonella typhimurium TA98 assessed as number of revertant at 75 ug by AMES test (reference value: 8 to 8.3); assay type: toxicity, Salmonella enterica subsp. enterica serovar Typhimurium; conditions: in vivo; dose 75 µg
[17] = Genotoxicity in Salmonella typhimurium TA98 assessed as mutagenic index at 200 ug by AMES test; assay type: toxicity, Salmonella enterica subsp. enterica serovar Typhimurium; conditions: in vivo; dose 200 µg
[18] = Genotoxicity in Salmonella typhimurium TA100 assessed as number of revertant at 10 ug by AMES test (reference value: 64.3 to 130.7); assay type: toxicity, Salmonella enterica subsp. enterica serovar Typhimurium; conditions: in vivo; dose 10 µg
[19] = Genotoxicity in Salmonella typhimurium TA98 assessed as mutagenic index at 10 ug by AMES test; assay type: toxicity, Salmonella enterica subsp. enterica serovar Typhimurium; conditions: in vivo; dose 10 µg
[20] = Genotoxicity in Salmonella typhimurium TA100 assessed as number of revertant at 75 ug by AMES test (reference value: 64.3 to 130.7); assay type: toxicity, Salmonella enterica subsp. enterica serovar Typhimurium; conditions: in vivo; dose 75 µg
[21] = Genotoxicity in Salmonella typhimurium TA100 assessed as mutagenic index at 200 ug by AMES test; assay type: toxicity, Salmonella enterica subsp. enterica serovar Typhimurium; conditions: in vivo; dose 200 µg
[22] = Genotoxicity in Salmonella typhimurium TA98 assessed as number of revertant at 500 ug by AMES test (reference value: 8 to 8.3); assay type: toxicity, Salmonella enterica subsp. enterica serovar Typhimurium; conditions: in vivo; dose 500 µg
[23] = biological target: T2, 5-hydroxytryptamine receptor 1A (Homo sapiens) (UniProt P08908); assay: Binding affinity to 5-HT1A (unknown origin) at 10^-5 M; conditions: dose 1.0 10^-5M
T2 sequence (whole entry): T1 sequence (P08908 whole entry)

[24] = Genotoxicity in Salmonella typhimurium TA100 assessed as mutagenic index at 75 ug by AMES test; assay type: toxicity, Salmonella enterica subsp. enterica serovar Typhimurium; conditions: in vivo; dose 75 µg
[25] = Genotoxicity in Salmonella typhimurium TA100 assessed as number of revertant at 200 ug by AMES test (reference value: 64.3 to 130.7); assay type: toxicity, Salmonella enterica subsp. enterica serovar Typhimurium; conditions: in vivo; dose 200 µg
[26] = Genotoxicity in Salmonella typhimurium TA100 assessed as mutagenic index at 10 ug by AMES test; assay type: toxicity, Salmonella enterica subsp. enterica serovar Typhimurium; conditions: in vivo; dose 10 µg
[27] = Genotoxicity in Salmonella typhimurium TA98 assessed as mutagenic index at 750 ug by AMES test; assay type: toxicity, Salmonella enterica subsp. enterica serovar Typhimurium; conditions: in vivo; dose 750 µg
[28] = Genotoxicity in Salmonella typhimurium TA98 assessed as number of revertant at 200 ug by AMES test (reference value: 8 to 8.3); assay type: toxicity, Salmonella enterica subsp. enterica serovar Typhimurium; conditions: in vivo; dose 200 µg
[29] = Genotoxicity in Salmonella typhimurium TA98 assessed as number of revertant at 750 ug by AMES test (reference value: 8 to 8.3); assay type: toxicity, Salmonella enterica subsp. enterica serovar Typhimurium; conditions: in vivo; dose 750 µg
[30] = Genotoxicity in Salmonella typhimurium TA100 assessed as mutagenic index at 500 ug by AMES test; assay type: toxicity, Salmonella enterica subsp. enterica serovar Typhimurium; conditions: in vivo; dose 500 µg
[31] = Genotoxicity in Salmonella typhimurium TA98 assessed as mutagenic index at 500 ug by AMES test; assay type: toxicity, Salmonella enterica subsp. enterica serovar Typhimurium; conditions: in vivo; dose 500 µg
[32] = Genotoxicity in Salmonella typhimurium TA98 assessed as mutagenic index at 75 ug by AMES test; assay type: toxicity, Salmonella enterica subsp. enterica serovar Typhimurium; conditions: in vivo; dose 75 µg
[33] = Genotoxicity in Salmonella typhimurium TA100 assessed as number of revertant at 500 ug by AMES test (reference value: 64.3 to 130.7); assay type: toxicity, Salmonella enterica subsp. enterica serovar Typhimurium; conditions: in vivo; dose 500 µg
[34] = system: Mus musculus; assay: Antiallodynic activity in mouse model of OXA-induced peripheral neuropathy assessed as mean latency time to nocifensive response at 18 mg/kg, ip administered after 3 hrs of OXA stimulation and measured after 1 hr by cold plate method (reference value: 59.76 +/- 0.16 sec); assay type: functional
[35] = Genotoxicity in Salmonella typhimurium TA100 assessed as mutagenic index at 750 ug by AMES test; assay type: toxicity, Salmonella enterica subsp. enterica serovar Typhimurium; conditions: in vivo; dose 750 µg
[36] = system: Mus musculus; assay: Antiallodynic activity in mouse model of OXA-induced peripheral neuropathy assessed as mean paw withdrawal threshold at 18 mg/kg, ip administered after 3 hrs of OXA stimulation and measured after 1 hr by Von-frey method (reference value: 3.144 +/- 0.169 g); assay type: functional
[37] = system: Mus musculus; assay: Antiallodynic activity in mouse model of OXA-induced peripheral neuropathy assessed as mean paw withdrawal threshold at 18 mg/kg, ip administered after 7 days of OXA stimulation and measured after 1 hr by Von-frey method (reference value: 3.192 +/- 0.181 g); assay type: functional
[38] = system: Mus musculus; assay: Antiallodynic activity in mouse model of OXA-induced peripheral neuropathy assessed as mean latency time to nocifensive response at 18 mg/kg, ip administered after 7 days of OXA stimulation and measured after 1 hr by cold plate method (reference value: 57.64 +/- 1.267 sec); assay type: functional
[39] = Genotoxicity in Salmonella typhimurium TA100 assessed as number of revertant at 750 ug by AMES test (reference value: 64.3 to 130.7); assay type: toxicity, Salmonella enterica subsp. enterica serovar Typhimurium; conditions: in vivo; dose 750 µg

| Compound | microsomal CLint [1] [µL/min/mg] | Drug metabolism [2] | selectivity ratio [3] | Activity [5] | Activity [7] | half-life [10] [min] | Ki [11] [nM] | TD50 [12] [mg/kg] | ED50 [13] [mg/kg] | ED50 [14] [mg/kg] | Activity [15] | Activity [16] | Activity_index [17] | Activity [18] | Activity_index [19] | Activity [20] | Activity_index [21] | Activity [22] | Activity_index [24] | Activity [25] | other results |
| --- | --- | --- | --- | --- | --- | --- | --- | --- | --- | --- | --- | --- | --- | --- | --- | --- | --- | --- | --- | --- | --- |
| Cc1cc(C)c(OCCCN[C@@H]2CCCC[C@H]2O)c(C)c1 (relative stereo) | 128 | Metabolite_Detected | 2.9 | Non-Toxic | inactive | 27.2 | 2370 | 42.9 | 14.8 |  |  |  |  |  |  |  |  |  |  |  | Time [4]: 7.09 s; Activity [6]: 1.999 g; Time [8]: 19.35 s; Activity [9]: 1.958 g |
| CC(C)NC[C@@H](O)COc1cccc2ccccc12 [DEXPROPRANOLOL] |  |  |  |  |  |  |  |  |  | 16 |  |  |  |  |  |  |  |  |  |  |  |
| CC(C)NCC(O)COc1cccc2ccccc12 (racemic) [PROPRANOLOL] |  |  |  |  |  |  |  |  |  | 1.2 |  |  |  |  |  |  |  |  |  |  |  |
| Cc1cccc(C)c1OCCOCCNC1CCC(O)CC1.Cl (centres undefined) | 19.8 | Metabolite_Detected | 3.99 |  |  | 87.7 |  | 132 | 33 |  | 8 | 8.3 | 1.2 | 226.7 | 1 | 312.3 | 0.8 | 6.7 | 4.3 | 55 | Activity [23]: inactive; Activity_index [26]: 3.1; Activity_index [27]: 0.4; Activity [28]: 9.3; Activity [29]: 3; Activity_index [30]: 3.8; Activity_index [31]: 0.8; Activity_index [32]: 1; Activity [33]: 274.3 |
| Cc1cc(C)c(C)c(OCCOCCN[C@H]2CCCC[C@@H]2O)c1.Cl (racemic) | 93 | Metabolite_Detected | 2.91 | Non-Toxic | inactive | 37.2 | 1200 | 54.2 | 18.2 |  | 7 | 8 | 1.4 | 86 | 0.9 | 80.7 | 1 | 9 | 1.1 | 70.5 | Time [34]: 20.92 s; Activity_index [35]: 0.4; Activity [36]: 2.09 g; Activity_index [26]: 1.2; Activity [28]: 11; Activity [37]: 1.907 g; Activity_index [31]: 1.1; Time [38]: 8.86 s; Activity_index [32]: 1; Activity [39]: 56 |

— ChEMBL document CHEMBL4725268, “Anticonvulsant and analgesic in neuropathic pain activity in a group of new aminoalkanol derivatives” (Bioorg Med Chem Lett, 2020)
